Values after ≈ are worked out from the molar mass of the structure shown. Where two headings read alike, the source gives them in different places.
Legend:
Colon-38 Adenocarcinoma = test: Tumor growth delay in mice, Colon-38 model; type: in vivo; conditions: 20mg implants in C57B/mice; 15 mg/kg; d3,6; intraperitoneally
From the text: Thus, in the lower level resistant cell lines, such as the ten-fold mitomycin C resistant L1210 and the tenfold adriamycin resistant 2780 ovarian cancer, Compound 1 maintained its complete activity as shown in Table II. The anti-tumor activity of compounds of the present invention in in vivo mouse murine models were studied. 3) Survival Studies In Tumor-Bearing Mice: 3.1 P-388 Leukemia Modles: One million P-388 leukemia cells originally obtained from American Type Culture Collection (Rockville, MD) are implanted into the peritoneum of adult DBA-2J male mice (Jackson Laboratories, Bar Harbor, ME). Twenty four hours later, drugs diluted in physiological saline are injected intraperitoneally at a volume of 0.1 mL/10 g body weight. The mice (10/group) are then followed for survival daily and compared to untreated tumor bearing mice. […] The perpendicular widths of the tumors are measured by caliper thrice weekly and converted to an estimated tumor mass according to the formula: ((1 X W)^2)/(2)= grams of tumor. [formula] wherein • W = width of tumor • l = length of tumor Tumor growth delay is calculated as the difference in days for tumors in treated mice to reach an estimated mass 750 mg or 1.5 g compared to that in untreated controls: Days to reach 750 mg (Treated - Control) = Days of Tumor Growth Delay [formula] […]

8226 Human Myeloma = test: In vitro tumor cell viability assay using MTT dye; type: cell-based
Experimental: (§1) Compounds of the present invention were tested for their in vitro activity in tumor cells sensitive and resistant to standard anti-cancer agents. The tumor cell lines used in this protocol are 8226 human Myeloma^1; 8226/Dox-40^2, L-1210/Murine Leukemia, multidrug resistant L-210/^3, 2780 Human Ovarian Cancer and 2780/AD^4. Each of these resistant cell lines is known as a multidrug resistant or "MDR" cell line. These cell lines produce a 170,00 molecular weight membrane protein termed the P-glycoprotein which acts as an active drug efflux pump. Thus, once a cell produces the P-glycoprotein, it has the capability of pumping out of the cell a large variety of unrelated natural products. […] The protocol for measuring the effectiveness of compounds of the present invention is as follows: 2) In Vitro Tumor Cell Viability Assays Using MTT-Dye: Tumors are processed into a single cell suspension as described above. The cells are plated at a concentration of 3-5 X 10^4/1 mL well into plastic 96-well plates. […] Afterwards the medium containing the drug is removed, the cells are "washed" by centrifugation in fresh medium or phosphate-buffered saline (pH 7.4). A tetrazolium dye is then added (3,4,5-dimethylthiazol-2-yl)-2,5-diphenyl tetrazolium bromide (MTT). This dye forms a colored formazan product upon activation by mitochondrial reductases in viable cells. Typically, the formazan product is solubilized in acid-propanol or DMSO. The intensity of the color is proportional to viable cell numbers and this is quantitated by spectrophotometric absorbance ([…]) on a micro ELISA plate reader. Test results are calibrated in % control absorbance from untreated tumor cells (Mossman T: J Immunol Meth 65:55-63, 1983). Using the above procedure, Compound 1 was tested for its cytotoxic activity with respect to various tumor cell lines.

[1] = test system: 2780 Human Ovarian Cancer; test: In vitro tumor cell viability assay using MTT dye; type: cell-based; conditions: MTT dye reduction
Experimental: as §1

L-1210/Murine Leukemia = test: In vitro tumor cell viability assay using MTT dye; type: cell-based; conditions: Mus musculus
Experimental: as §1

Melanoma = test: Colony forming assay in fresh human tumors; type: cell-based; conditions: .001 ug/mL continuously, tumor cell survival of less than 50% of control
Experimental: The clonogenic assays were conducted in accordance with the procedure described hereinbelow: 1) Colony Forming Assays in Soft Agar: Fresh human or murine tumors are disaggregated into single cell suspensions using mechanical, hypoosmotic and/or enzymatic (trypsin) methods. The single cells (about 5 X 10^4-10^5) are plated in 35 mm plastic petri dishes onto a 1 ml "feeder layer" of 0.3% agar dissolved in growth medium containing 5-10% vol/vol of heat-inactivated fetal bovine serum, molten 0.3% agar and the antibiotics penicillin (100 u/mL) and streptomycin (100 ug/mL). Drug exposures can be performed for one hour or continuously (drugs added to final plating medium). Tumor cell colonies > 60 uM in size are counted by automated image analysis after 10-20 days of incubation in a humidified, 5-10% CO2-gassed environment maintained at 37°C. Inhibition of colony formation is calculated based on comparisons to control (untreated) plates wherein the growth of hundreds of colonies/plate is typical. […]
Fresh human tumor specimens disaggregated to single cell suspensions and exposed to .001 ug/mL of drug continuously. Percent survival represents the fraction of tumor colonies (> 60 uM size) obtained after drug treatment compared to untreated cells of the same tumor. […] Each tumor sample is analyzed in three different petri dishes (i.e., n = 3 for each sample).

IC50 (8226 Human Myeloma; 96 h, 8226 Human Myeloma, 4-day drug exposure, MTT dye reduction, read-out: Activity (IC50)): 11 ng/mL (≈ 0.0346 µM)
IC50 (8226 Human Myeloma; Homo sapiens, 8226 Myeloma Cells Sensitive, continuous exposure, MTT dye assay, read-out: IC50 VALUES): 10 ng/mL (≈ 0.0314 µM)
IC50 [1]: 4000 ng/mL (≈ 12.6 µM)
IC50 (L-1210/Murine Leukemia; 144 h, Sensitive L1210, six day MTT assay, continuous drug exposure, read-out: Concentration for 50% inhibition of tumor cells): 2.5 ng/mL (≈ 0.00785 µM)
IC50 (L-1210/Murine Leukemia; L1210, 96 h, L-1210/Murine Leukemia, 4-day drug exposure, MTT dye reduction, read-out: Activity (IC50)): 3 ng/mL (≈ 0.00942 µM)
IC50 (L-1210/Murine Leukemia; L1210 Leukemia Cells Sensitive, continuous exposure, MTT dye assay, read-out: IC50 VALUES): 2.8 ng/mL (≈ 0.00879 µM)
SMILES: CN(C)CCN1C(=O)c2cccc3cc4ccccc4c(c23)C1=O [Compound 1, 2-[2'-(dimethylamino)ethyl]-1,2-dihydro-3H-dibenz(deh)isoquinoline-1,3-dione]
Experimental Activity, Days of Tumor Growth Delay (Colon-38 Adenocarcinoma): 6 days TT
Overall Response (Melanoma): 64%

From patent EP0536208B1, “1,2-DIHYDRO-3H-DIBENZISOQUINOLINE-1,3-DIONE ANTICANCER AGENTS” (RESEARCH CORPORATION TECHNOLOGIES, INC., priority 1990, dated 1992)
